Values quoted from earlier work in patent US9029390B2, “Oral composition containing an antiplatelet agent of the thienopyridine family in the form of free base” (CLL Pharma, priority 2008, dated 2015).

Legend:
[1] = patients who received clopidogrel, study CAPRIE

solubility in water	frequency of gastro-intestinal bleedings [1] [%]	gastro-intestinal bleedings having required a hospitalization [1] [%]	SMILES
almost null			COC(=O)[C@H](c1ccccc1Cl)N1CCc2sccc2C1 [clopidogrel free base, clopidogrel]
	2.0	0.7	COC(=O)[C@H](c1ccccc1Cl)N1CCc2sccc2C1 [clopidogrel]
